Key:
human CD14 = molecular target: T1, human CD14 (Homo sapiens, UniProt P08571); assay: CD14 binding to solid phase phospholipids (ELISA); settings: for direct binding of CD14 to molecular species of PG: CD14 1 μg/ml, POPG = 100%; for binding of CD14 to solid phase lipid: varying CD14, 37° C. 1 h
T1 construct: purchased Cell Sciences Inc. (Canton, Mass.)
T1 sequence (P08571 20-345): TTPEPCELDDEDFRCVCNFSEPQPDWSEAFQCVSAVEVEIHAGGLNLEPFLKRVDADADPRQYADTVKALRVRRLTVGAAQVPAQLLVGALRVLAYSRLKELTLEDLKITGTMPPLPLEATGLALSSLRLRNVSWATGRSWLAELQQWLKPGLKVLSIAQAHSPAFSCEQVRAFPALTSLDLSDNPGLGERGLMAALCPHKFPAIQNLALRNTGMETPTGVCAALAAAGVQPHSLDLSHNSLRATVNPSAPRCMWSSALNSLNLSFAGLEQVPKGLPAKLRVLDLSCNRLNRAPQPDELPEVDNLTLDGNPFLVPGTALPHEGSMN
Experimental: FIG. 12. CD14 binds to solid phase lipids. […] Nonspecific binding was blocked with 20 mM Tris buffer (pH 7.4) containing 0.15 M NaCl, 5 mM CaCl2 (in the upper panel) or 2 mM EGTA (in the lower panel), and 5% (wt/vol) BSA (buffer A).
FIG. 13. PG Inhibits CD14 binding to solid phase LPS. (A) Various types of PG were coated onto microtiter plates, and incubated with CD14 (1 μg/ml) at 37° C. for 1 h. […] Types of PG shown on the graph are: dilauroylphosphatidylglycerol (DLPG), dimyristoyl-phosphatidylglycerol (DMPG), dipalmitoylphosphatidylglycerol (DPPG), and 16:0/18:1; palmitoyl-oleoyl-phosphatidylglycerol (POPG). […] The binding of CD14 to LPS was detected using anti-CD14 monoclonal antibody. The ELISA based absorbance of CD14 bound to LPS was defined as 100%.
The wells were then washed with 20 mM Tris buffer (pH 7.4) containing 0.15 M NaCl and 5 mM CaCl2 or 2 mM EGTA (buffer B), and 1 μg/ml anti-human CD14 IgG or anti-His antibody (50 μl/well) in buffer A was added and incubated overnight at 4° C., followed by the incubation with horseradish peroxidase (HRP)-labeled anti-mouse IgG (1:5000) for 1 h. After washing the wells with buffer B, the peroxidase reaction was finally performed using o-phenylenediamine as a substrate. The binding of CD14 or MD-2 to phospholipids was detected by measuring absorbance at 490 nm.

RAW264.7 cells = assay: BODIPY-LPS association with RAW264.7 macrophages (FACScan); assay type: cell-based; settings: BODIPY-LPS 1 μg/ml, liposomes 200 μg/ml, 4 h
Experimental: FIG. 11. Anionic phospholipids block BODIPY-LPS association with RAW264.7 macrophages. Liposomes were prepared by bath-sonication at room temperature for 30 min. RAW264.7 cells (10^6/tube) were incubated either without or with 1 μg/ml BODIPY-LPS in the presence or absence of liposomes (200 μg/ml) at 4° C. for 4 h. Subsequently the cells were washed by centrifugation and the cell associated fluorescence was quantified by FACScan. […] In panel B the mean fluorescence intensity (MFI) ratio of cells plus LPS/cells without LPS is plotted against different phospholipid treatments. Values shown in B are means±SE for three independent experiments with duplicate determinations in each experiment. Significance—* p<0.05, ** p<0.01
RAW264.7 cells (10^6) were incubated with BODIPY-LPS (1 μg/ml) either with or without phospholipid liposomes (200 μg/ml) at 4° C. for 4 h. When liposomes were added, […] preceded the addition of fluorescent LPS. After the cells were washed with PBS by centrifugation, cell adherent fluorescence was determined using FACScan. Macrophages were counted for 20,000 cells and the graph was made by CellQuest software.

TLR6 = molecular target: T2, TLR6 (Homo sapiens, UniProt Q9Y2C9); assay: TLR agonist IL-8 production in BEAS2B epithelial cells, TLR6; assay type: cell-based; settings: MALP2, 48 h
T2 construct: endogenous in cells; host or cells: BEAS2B
Experimental: (§1) In this experiment, multiple TLRs were stimulated with defined TLR agonists for 48 h, and the IL-8 production was measured. In each case, the maximal stimulation by agonist is set at 100% and the antagonism by POPG or PI is expressed as the relative % response. The Controls consist of no treatment, or treatment with POPG, or phosphatidylcholine (POPC), or phosphatidylinositol (PI), in the absence of agonist as indicated. The agonists for the TLRs consist of Pam3Cys for TLR1/2, Mycoplasma pneumoniae membranes as an agonist for TLR2, Mycoplasma fermentans derived MALP2 as an agonist for TLR 2/6, double stranded RNA (poly IC) for TLR3, and bacterial flagellin (Fla) as an agonist for TLR5.
(§2) Monolayers of BEAS2B cells were challenged with the TLR1/2 agonist, Pam3Cys (25 ug/ml); the TLR 2/6 agonist MALP2 (10 ng/ml); the TLR2 agonist mycoplasma membrane (Mem) (1 ug/ml); the TLR3 agonist, poly I:C (0.1 ug/ml); and the TLR5 agonist, flagellin (100 ng/ml). For each agonist parallel incubations were performed containing 200 ug/ml POPG as liposomes, or 200 ug/ml POPG as nanodises as indicated.

TLR5 = molecular target: T3, TLR5 (Homo sapiens, UniProt O60602); assay: TLR agonist IL-8 production in BEAS2B epithelial cells, TLR5; assay type: cell-based; settings: flagellin, 48 h
T3 construct: endogenous in cells; host or cells: BEAS2B
Experimental: as §1, §2

TLR2 = TLR2 (Homo sapiens, UniProt O60603); assay: TLR agonist IL-8 production in BEAS2B epithelial cells, TLR2; assay type: cell-based; parameters: endogenous in cells; host or cells: BEAS2B; settings: Mycoplasma pneumoniae membranes, 48 h
Experimental: as §1, §2

Sequence of TLR2 (O60603 21-784): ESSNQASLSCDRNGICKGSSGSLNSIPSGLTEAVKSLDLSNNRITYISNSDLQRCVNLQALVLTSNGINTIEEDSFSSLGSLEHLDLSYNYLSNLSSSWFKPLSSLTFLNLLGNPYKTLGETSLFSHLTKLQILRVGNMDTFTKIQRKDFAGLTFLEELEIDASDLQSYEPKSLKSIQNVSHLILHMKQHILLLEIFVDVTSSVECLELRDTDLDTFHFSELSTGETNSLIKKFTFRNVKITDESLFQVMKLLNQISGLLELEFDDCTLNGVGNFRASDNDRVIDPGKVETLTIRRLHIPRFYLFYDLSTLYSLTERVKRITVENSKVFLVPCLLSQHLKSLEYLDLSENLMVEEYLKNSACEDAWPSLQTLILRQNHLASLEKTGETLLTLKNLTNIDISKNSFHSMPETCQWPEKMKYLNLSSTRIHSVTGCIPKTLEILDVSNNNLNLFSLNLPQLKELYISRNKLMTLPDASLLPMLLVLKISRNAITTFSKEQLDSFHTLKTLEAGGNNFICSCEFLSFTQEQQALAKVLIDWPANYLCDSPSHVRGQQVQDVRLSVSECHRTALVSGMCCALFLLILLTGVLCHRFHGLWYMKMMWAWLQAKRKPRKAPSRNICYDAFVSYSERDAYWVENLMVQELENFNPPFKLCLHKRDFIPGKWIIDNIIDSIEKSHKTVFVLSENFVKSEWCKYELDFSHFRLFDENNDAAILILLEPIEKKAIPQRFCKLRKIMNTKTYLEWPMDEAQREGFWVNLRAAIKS
T2 sequence (Q9Y2C9 32-796): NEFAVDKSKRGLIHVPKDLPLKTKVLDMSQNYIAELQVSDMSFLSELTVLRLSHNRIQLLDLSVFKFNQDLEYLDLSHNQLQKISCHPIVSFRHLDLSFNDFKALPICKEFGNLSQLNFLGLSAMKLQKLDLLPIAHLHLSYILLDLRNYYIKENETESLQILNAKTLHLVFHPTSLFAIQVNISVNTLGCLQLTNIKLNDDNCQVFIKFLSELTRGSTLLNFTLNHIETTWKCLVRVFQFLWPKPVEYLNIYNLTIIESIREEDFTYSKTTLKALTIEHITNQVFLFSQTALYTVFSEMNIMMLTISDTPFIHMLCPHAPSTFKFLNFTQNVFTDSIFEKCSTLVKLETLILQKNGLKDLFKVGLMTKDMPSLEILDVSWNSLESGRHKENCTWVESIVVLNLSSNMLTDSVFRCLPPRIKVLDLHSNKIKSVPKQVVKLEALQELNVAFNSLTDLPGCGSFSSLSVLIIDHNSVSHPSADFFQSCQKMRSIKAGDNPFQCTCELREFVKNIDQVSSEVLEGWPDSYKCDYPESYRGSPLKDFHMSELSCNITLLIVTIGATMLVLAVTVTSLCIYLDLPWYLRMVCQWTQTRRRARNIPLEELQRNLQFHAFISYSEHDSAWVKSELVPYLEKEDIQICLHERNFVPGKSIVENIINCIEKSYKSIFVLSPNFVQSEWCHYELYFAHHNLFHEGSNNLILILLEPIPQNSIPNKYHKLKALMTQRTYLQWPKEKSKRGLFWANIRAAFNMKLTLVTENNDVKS
T3 sequence (O60602 21-858): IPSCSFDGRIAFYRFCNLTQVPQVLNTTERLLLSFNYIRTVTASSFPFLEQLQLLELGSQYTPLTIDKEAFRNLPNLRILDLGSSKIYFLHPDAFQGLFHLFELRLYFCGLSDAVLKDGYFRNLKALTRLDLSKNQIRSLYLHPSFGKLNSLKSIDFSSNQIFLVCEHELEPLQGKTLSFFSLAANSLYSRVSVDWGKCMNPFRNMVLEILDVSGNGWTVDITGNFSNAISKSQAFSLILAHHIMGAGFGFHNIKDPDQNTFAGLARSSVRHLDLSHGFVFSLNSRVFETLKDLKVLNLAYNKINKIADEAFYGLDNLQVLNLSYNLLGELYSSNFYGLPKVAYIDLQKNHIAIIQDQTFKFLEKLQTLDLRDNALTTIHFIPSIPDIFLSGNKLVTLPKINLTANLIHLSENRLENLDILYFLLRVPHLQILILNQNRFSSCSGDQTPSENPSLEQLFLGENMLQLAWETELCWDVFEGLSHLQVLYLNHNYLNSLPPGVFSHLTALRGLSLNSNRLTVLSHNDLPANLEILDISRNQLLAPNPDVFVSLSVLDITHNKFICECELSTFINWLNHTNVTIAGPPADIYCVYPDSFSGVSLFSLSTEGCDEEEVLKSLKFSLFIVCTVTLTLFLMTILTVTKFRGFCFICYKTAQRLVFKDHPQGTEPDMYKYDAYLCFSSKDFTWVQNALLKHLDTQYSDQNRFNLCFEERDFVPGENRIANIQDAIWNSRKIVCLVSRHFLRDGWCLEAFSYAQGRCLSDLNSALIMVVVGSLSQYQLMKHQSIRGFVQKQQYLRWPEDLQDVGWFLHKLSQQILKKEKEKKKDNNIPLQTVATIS

Molecule | direct binding of CD14 to molecular species of PG (human CD14) | binding of CD14 relative to the levels of POPG binding (human CD14; 1.25 nmole lipid per well) | binding of BODIPY-LPS to the surface of macrophages (RAW264.7 cells) | binding of CD14 to solid phase lipid (human CD14; 1.25 nmole lipid per well) | activity of TLR6 (IL-8 production) (TLR6) | activity of TLR5 (IL-8 production) (TLR5) | activity of TLR2 (IL-8 production) (TLR2)
CCCCCCCCCCCCCCCC(=O)OCC(COP(=O)(O)OCC(O)CO)OC(=O)CCCCCCCCCCCCCCC (centres unmarked) [DPPG, dipalmitoyl-phosphatidylglycerol, reference compound] | nearly the same extent as POPG and DMPG |  |  |  |  |  | 
CCCCCCCCCCCCCC(=O)OCC(COP(=O)(O)OCC(O)CO)OC(=O)CCCCCCCCCCCCC (centres unmarked) [DMPG, dimyristoyl-phosphatidylglycerol] | strongest direct binding interactions |  |  |  |  |  | 
CCCCCCCCCCCCCCCC(=O)OC[C@H](COP(=O)([O-])OCC[N+](C)(C)C)OC(=O)CCCCCCCCCCCCCCC [DPPC, dipalmitoyl-phosphatidylcholine, reference compound] |  | approximately 30% |  |  |  |  | 
phosphatidylinositol [PI] |  |  | blocks the binding | strongly bound | inhibit | not | inhibit
CCCCCCCC/C=C\CCCCCCCC(=O)O[C@H](COC(=O)CCCCCCCCCCCCCCC)COP(=O)(O)OCC(O)CO (some centres unmarked) [POPG, palmitoyl-oleoyl-phosphatidylglycerol] | strongest direct binding interactions |  | blocks the binding | strongly bound | inhibit | not | inhibit

Reference: patent publication US10532066B2, “Surfactant lipids, compositions thereof, and uses thereof” (National Jewish Health, priority 2007, dated 2020)
